Reference: patent publication US8614222B2, “Methods of preventing and treating low bone mass diseases” (The Trustees of Columbia University in the City of New York, priority 2008, dated 2013)
“Also recorded” adds a separate entry of the source.

Tests used:
peripheral serotonin [1] = assay: Effect of CBMIDA and pCPA on peripheral (serum) serotonin in mice (Example 1); type: in vivo; settings: for reduction of peripheral (serum) serotonin: 250 mg/kg orally
Protocol: One month old C57B1/6 inbred male mice, weighing 15-16 g were used in the experiments. Animals were housed under 12 h light/12 h dark conditions in a room with controlled temperature (22° C.) and humidity (60%). Mice had ad libitum access to food and water, and were used after a minimum of 4 days of acclimatization to the housing conditions. All experiments were conducted following Columbia University Guidelines for the Animal Use and Care of laboratory mice.
(§1) Before the experiments, animals were separated into individual cages one day prior to the experiment. Compounds were fed orally (gavage) to the mouse, calculated according to the weight of the mouse, twice a day at 1700 h and at 1100 h. […] This route created two potential barriers for the compound to reach the brain. […] Control animals received the same volume of vehicle. Blood was collected through heart puncture on isofluorane-anaesthesized animals and allowed to clot for 5 minutes on ice. The serum was separated, snap chilled in liquid nitrogen and frozen at −80° C. till analyzed. Brainstems from all the animals were collected and processed for brain serotonin measurement through HPLC.
The Serotonin ELISA kit obtained from the Fitzgerald company was used to measure derivatized serotonin from serum. Derivatization is part of the sample preparation. Serotonin present in the serum was first quantitatively acylated into N-Acylserotonin using the acylation reagent. The principle of the assay is based on competitive ELISA, wherein serotonin that is bound to the solid phase of the plate and the N-acylserotonin compete for the fixed number of antiserum binding sites. When the reaction is in equilibrium, free antigen and free antigen-antiserum complexes are removed by washing.
The antibody bound to the solid phase serotonin is then detected using antirabbit/peroxidase. The substrate TMB/Peroxidase reaction is read at 450 nm. The amount of antibody bound to the solid phase serotonin is inversely proportional to the concentration of serotonin in the sample.
Catechol-3,6-bis methyleneiminodiacetic acid (CBMIDA) (basic structure is an EDTA-like compound and the catechol ring is at the centre) synthesized at the Columbia University Chemistry division, and para-chlorophenylalanine (pCPA) obtained from Sigma Aldrich Corp. were used. Each compound was dissolved with twice molar solution of NaHCO3 in water and given to mouse orally at 250 and 500 mg/kg/dose.

peripheral serotonin [2] = assay: Peripheral serotonin levels in wild-type mice (Example 11); type: in vivo; settings: 5 mice per compound
Protocol: (§2) Serotonin serum levels were quantified using immunoassay kits from Fitzgerald (Serotonin) and serotonin levels in the different regions of the brain were quantified by HPLC method as described previously (Mann et al., 1992, Arch. Gen. Psychiatry 49:442-446).
The following three compounds were tested for their ability to effect peripheral serotonin levels in wild-type mice:
Also tested as a negative control was vehicle alone. Each compound as well as vehicle was administered to 5 mice and the resulting peripheral serotonin levels were as follows: […]

rb 5-HT1B receptors = rb 5-HT1B receptors (Oryctolagus cuniculus, UniProt P49144); settings: cited from earlier work
Chain of rb 5-HT1B receptors (P49144 whole entry): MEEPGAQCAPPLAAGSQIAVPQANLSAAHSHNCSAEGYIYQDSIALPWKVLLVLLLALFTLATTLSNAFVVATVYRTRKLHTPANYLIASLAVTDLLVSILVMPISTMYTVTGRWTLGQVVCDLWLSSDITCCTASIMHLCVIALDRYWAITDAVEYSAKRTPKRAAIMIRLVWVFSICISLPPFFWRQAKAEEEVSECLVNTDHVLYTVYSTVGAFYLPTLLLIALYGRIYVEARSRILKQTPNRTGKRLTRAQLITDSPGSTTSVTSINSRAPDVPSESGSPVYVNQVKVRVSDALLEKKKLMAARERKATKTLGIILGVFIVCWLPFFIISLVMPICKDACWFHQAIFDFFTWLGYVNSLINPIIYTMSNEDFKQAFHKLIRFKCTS

brain serotonin = assay: Brain serotonin / blood brain barrier after oral pCPA in mice; type: in vivo; settings: 250 mg/kg orally
Protocol: as §1

Lrp5−/− mice = assay: pCPA treatment of Lrp5−/− and WT mice; type: in vivo
Protocol: Consistent with the conclusion that the increase in serum serotonin level is responsible fully or partly for the bone phenotype of the Lrp5−/− mice is the discovery that pCPA, a serotonin synthesis inhibitor (Eldridge et al., 1981, Ann. Rev. Physiol. 43:121-135), prevented the appearance of the Lrp5−/− bone phenotype by decreasing serotonin production. WT and Lrp5−/− mice were treated with 300 mg/kg pCPA intraperitoneally three times per week, from 3 weeks to 12 weeks of age (FIG. 7A) and the changes in serum serotonin levels, TPH1 expression in gut and TPH2 expression in brain stem were analyzed. Bone histomorphometry was also performed. […] This rescue of the Lrp5−/− phenotype was achieved by normalization of the gut TPH1 mRNA and of serum serotonin levels (FIGS. 7C and 7D).
Generation of Lrp5−/− (Kato et al., 2002, J. Cell Biol. 157:303-314) β-cateninfloxed/floxed (Glass et al., 2005, Dev. Cell 8:751-764), α1(I)collagen-cre transgenic (Dacquin et al., 2002, Dev. Dyn. 224:245-251) and Htt−/− (Ansorge et al., 2008, J. Neurosci. 28:199-207) mice were as described previously. Lrp5+/−;Htt+/− double heterozygous mice were generated by crossing Lrp5+/− and Htt+/− mice. Three week-old Wt or Lrp5−/− mice were administered pCPA on alternate days for 9 weeks by i.p. All animal protocols were approved by the Animal Care Committees of Columbia University.
Static histomorphometry measurements were performed as previously described in accordance with standard nomenclature, using the Osteomeasure Analysis System (Osteometrics, Inc) (Ducy et al., 2000, Cell 100:197-207). Four to 9 animals were assigned per group.
as §2

primary osteoblasts = assay: Real-time PCR of gene expression in primary osteoblasts treated with serotonin; type: cell-based, mouse; settings: serotonin 50 to 100 μM, 24 hr
Protocol: Calvaria osteoblasts were extracted by triple collagenase/trypsine digestion from 4 day-old CD1 pups and differentiated with ascorbic acid as previously described (Duey et al., 2000, Cell 100:197-207).
(§3) Osteoblasts were treated in serum-free medium with vehicle or Serotonin (50 to 100 μM, Sigma) for 24 hr. Total RNA were extracted with Trizol (Invitrogen). cDNA were generated using the ABI Reverse transcriptase system and random hexanucleotide primers. Real-time PCR was performed using superarray primers on a Stratagene real time PCR cycler and Actin expression was used as endogenous control. Chromatin immunoprecipitation assays (ChIP) were performed by standard procedures using primary osteoblasts. Microarray analysis was performed as described previously (Glass et al., 2005, Dev. Cell 8:751-764).

CREB = CREB phosphorylation (Western blot) and CREB binding to Cyclin D1 promoter (ChIP) in primary osteoblasts; type: cell-based, mouse
Protocol: as §3
Osteoblasts were treated in serum-free medium with vehicle or Serotonin (50 to 100 μM, Sigma) for 24 hr. Lysates from primary osteoblasts or crushed frozen bones were prepared in RIPA buffer in the presence of protease and phosphatase inhibitors. Twenty to 60 μg of proteins were separated by SDS-PAGE in reducing conditions and transferred on nitrocellulose membrane using standard protocols. Membranes were incubated with primary antibodies including total or anti-Phospho CREB (Cell Signaling Technology).

ovariectomized rats = assay: Curative regimen in ovariectomized rats (histomorphometry, μCT, biomechanical testing); type: in vivo; settings: OVX rats
Protocol: Virgin female Sprague-Dawley rats (National Institute of Nutrition, Hyderabad, India) were obtained at 3 months of age and allowed to acclimate to the facility for 1 week before study initiation and surgical procedures. They were housed under a 12 hour:12 hour light:dark cycle and provided throughout the study with water and PMI (Purina Mills, Incorporated) Certified Rodent Laboratory Chow. Rats were subjected to either bilateral ovariectomy or a sham operation under isoflurane anesthesia. […] The rats were divided into two groups of sham-operated and ovariectomized animals and left untreated for 3 weeks to allow bone loss to occur. One group of sham and one group of ovariectomized rats (n=10/group) were killed as baseline controls to determine bone loss before the start of LP-533,401 or PTH administration. The remaining animals (n=5-10/group) received vehicle or LP-533,401 (250 mg/kg/day) by gavage, or recombinant human PTH (80 ug/kg) by daily subcutaneous (s.c.) injection for 4 weeks. The 80 ug/kg dose of PTH was selected as being optimal for reversal of ovariectomy-induced bone loss in rats based on previous studies, while the dose of LP-533,401 was selected based on the effective dose for bone loss-reversal observed in mice experiments. To label bone-forming surfaces, animals were injected s.c. with calcein (8 mg/kg) at 10 and 3 days before death. Animals were killed by an overdose of Isofluorane anesthesia. The right tibia and lumbar vertebra 2 (L2) were collected, cleaned of excess soft tissue, fixed overnight in 10% formalin and processed for μCT or histomorphometric analysis. The right femur and L3 were cleaned of excess tissue and stored at −20° C. prior to biomechanical testing.
Bone histomorphometry was performed as previously described (Duey et al., 2000, Cell 100:197-207; Takeda et al., 2002, Cell 111:305-317; Parfitt et al., 1987, J. Bone Miner. Res. 2:595-610). Briefly, lumbar vertebrae were dissected, fixed for 24 hr in 10% formalin, dehydrated in graded ethanol series, and embedded in methyl methacrylate resin according to standard protocols (Parfitt et al., 1987, J. Bone Miner. Res. 2:595-610). Von Kossa/Von Gieson staining was performed using 7 μm sections for bone volume over tissue volume (BV/TV) measurement. Bone formation rate (BFR) was analyzed by the calcein double-labeling method (Ducy et al., 2000, Cell 100:197-207). Calcein (Sigma Chemical Co., St. Louis, Mo.) was dissolved in calcein buffer (0.15 M NaCl, 2% NaHCO3) and injected twice at 0.125 mg/g body weight on day 1 and 4, and then mice were killed on day 6. Unstained 4 μm sections were used for bone formation rate (BFR) measurements. For the analysis of parameters of osteoblasts and osteoclasts, 4 μm sections were stained with toluidine blue and tartrate-resistant acid phosphatase (TRAP), respectively (2). Histomorphometric analyses were performed using the Osteomeasure Analysis System (Osteometrics, Atlanta, Ga.).
Trabecular bone architecture of proximal tibia was assessed using a micro computed tomography (μCT) system (VivaCT 40, SCANCO Medical AG, Bassersdorf, Switzerland). Tibia bone specimen was stabilized with gauze in a 2 ml centrifuge tube filled with 70% ethanol and fastened in the specimen holder of the μCT scanner. One hundred μCT slices, corresponding to a 1.05 mm region distal from the growth plate, were acquired at an isotropic spatial resolution of 10.5 μm. A global thresholding technique was applied to binarize gray-scale μCT images where the minimum between the bone and bone marrow peaks in the voxel gray value histogram was chosen as the threshold value. The trabecular bone compartment was segmented by a semi-automatic contouring method and subjected to a model-independent morphological analysis (Hildebrand et al., 1999, J. Bone Miner. Res. 14:1167-1174) by the standard software provided by the manufacture of the μCT scanner. […]

[3] = 300 mg/kg i.p. three times per week, 3 to 12 weeks of age
[4] = LP-533,401 250 mg/kg/day, PTH 80 μg/kg/day

Molecule: O=C(O)CN(CC(=O)O)Cc1ccc(CN(CC(=O)O)CC(=O)O)c(O)c1O [CBMIDA, Catechol-3,6-bis methyleneiminodiacetic acid]
- reduction of peripheral (serum) serotonin (peripheral serotonin [1]; 4 week old mice): ~45%
- reduction of peripheral serotonin (peripheral serotonin [1]; 4 week old mice, 500 mg/kg orally twice in 20 hours): about 80%
- serotonin serum levels, decrease below normal (peripheral serotonin [1]; mice, 500 mg/kg orally twice daily): 80 % below normal
- peripheral serotonin (peripheral serotonin [1]; oral feeding (FIG. 11)): reduces

Molecule: COC(=O)C(=O)Nc1ccc(-c2cc(OC(c3ccc(-c4cccc(F)c4)cc3)C(F)(F)F)nc(N)n2)cc1 (stereo not drawn) [Methyl 2-(4-(2-amino-6-(2,2,2-trifluoro-1-(3′-fluorobiphenyl-4-yl)ethoxy)pyrimidin-4-yl)phenylamino)-2-oxoacetate]
- Peripheral serotonin (ng/ml) (mean ± SEM) (peripheral serotonin [2]): 23.76 ± 8.25 ng/mL

Molecule: O=C(c1ccc(F)cc1)C1CCN(CCn2c(=O)[nH]c3ccccc3c2=O)CC1 [ketanserin]
- behaviour at rb 5-HT1B receptors (rb 5-HT1B receptors): as silent, competitive antagonists

Molecule: NC(Cc1ccc(Cl)cc1)C(=O)O (stereo not drawn) [pCPA, para-chlorophenylalanine]
- reduction of peripheral (serum) serotonin (peripheral serotonin [1]; 4 week old mice): ~50%
- serum serotonin levels, decrease below normal range (peripheral serotonin [1]; mice, oral, control inhibitor): > 60 % below normal range
- crossing of the blood brain barrier (brain serotonin): did not cross the blood brain barrier
- serotonin in the brain (brain serotonin): did not decrease
- bone abnormalities (low bone phenotype) of Lrp5−/− mice (Lrp5−/− mice; [3]): corrected
- bone mass in WT mice (Lrp5−/− mice; [3]): without overtly affecting
- gut TPH1 mRNA (Lrp5−/− mice; Lrp5−/− mice, 300 mg/kg i.p.): normalization
- serum serotonin levels (Lrp5−/− mice; Lrp5−/− mice, 300 mg/kg i.p., 300 mg/kg): normalizes; also recorded: normalization
- Brain TPH2 mRNA levels (Lrp5−/− mice; treated mice, 300 mg/kg i.p.): not affected

Molecule: Nc1nc(OC(c2ccc(-c3cccc(F)c3)cc2)C(F)(F)F)cc(-c2ccc(OC[C@H](N)C(=O)O)cc2)n1 (stereo partly drawn) [(2S)-2-amino-3-(4-(2-amino-6-(2,2,2-trifluoro-1-(3′-fluorobiphenyl-4-yl)ethoxy)pyrimidin-4-yl)phenoxy)propanoic acid]
- Peripheral serotonin (ng/ml) (mean ± SEM) (peripheral serotonin [2]): 93.77 ± 12.15 ng/mL

Molecule: NCCc1c[nH]c2ccc(O)cc12 [serotonin, 5-hydroxytryptamine]
- expression of Cyclin D1 (primary osteoblasts): decreased
- expression of Cyclin D2 (primary osteoblasts): decreased
- expression of Osteocalcin (primary osteoblasts): not modified
- expression of Runx2 (primary osteoblasts): not modified
- expression of Type I collagen (primary osteoblasts): not modified
- CREB phosphorylation (CREB): significantly decreased
- binding of CREB to the Cyclin D1 promoter (ChIP) (CREB): decreased

B1: PTH: recombinant human PTH, intermittent s.c. injections, standard to which bone anabolic agents are compared (protein, UniProt P01270 32-115, looked up)
Parathyroid hormone: SVSEIQLMHNLGKHLNSMERVEWLRKKLQDVHNFVALGAPLAPRDAGSQRPRKKEDNVLVESHEKSLGEADKADVNVLTKAKSQ
modifications: Parathyroid hormone
notes: recombinant human PTH, intermittent s.c. injections, standard to which bone anabolic agents are compared
- number of osteoclasts per bone surface (OcS/BS) versus untreated ovariectomized rats (ovariectomized rats): similar
- decrease in cortical thickness at the femur mid-shaft (ovariectomized rats; [4]): equally rescued
- maximal load (femur, vertebra) (ovariectomized rats; [4]): restored to values seen in sham-operated rats
- stiffness (femur, vertebra) (ovariectomized rats; [4]): restored to values seen in sham-operated rats
